# Measurements taken from PubChem BioAssay (NCI).
#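 Five concentrations, 48 hours, 96-well plates. The concentration for 50% growth inhibition is given as GI50. TGI marks complete inhibition of growth.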
# Experiments:
# Assay in all cases: growth of human tumour cells (NCI), 48 h
# 786-0 renal = test system: 786-0 renal
# A498 renal = test system: A498 renal
# A549 NSCLC = test system: A549 NSCLC
# ACHN renal = test system: ACHN renal
# BT-549 breast = test system: BT-549 breast
# CAKI-1 renal = test system: CAKI-1 renal
# COLO 205 colon = test system: COLO 205 colon
# DU-145 prostate = test system: DU-145 prostate
# EKVX NSCLC = test system: EKVX NSCLC
# HCC-2998 colon = test system: HCC-2998 colon
# HCT-116 colon = test system: HCT-116 colon
# HCT-15 colon = test system: HCT-15 colon
# HL-60(TB) leukemia = test system: HL-60(TB) leukemia
# HOP-62 NSCLC = test system: HOP-62 NSCLC
# HOP-92 NSCLC = test system: HOP-92 NSCLC
# HS 578T breast = test system: HS 578T breast
# HT29 colon = test system: HT29 colon
# IGROV1 ovarian = test system: IGROV1 ovarian
# K-562 leukemia = test system: K-562 leukemia
# KM12 colon = test system: KM12 colon
# LOX IMVI melanoma = test system: LOX IMVI melanoma
# M14 melanoma = test system: M14 melanoma
# MALME-3M melanoma = test system: MALME-3M melanoma
# MCF7 breast = test system: MCF7 breast
# MDA-MB-231 breast = test system: MDA-MB-231 breast
# MDA-MB-435 = test system: MDA-MB-435
# MOLT-4 leukemia = test system: MOLT-4 leukemia
# NCI-H226 lung = test system: NCI-H226 lung
# NCI-H23 lung = test system: NCI-H23 lung
# NCI-H460 lung = test system: NCI-H460 lung
# NCI-H522 lung = test system: NCI-H522 lung
# NCI/ADR-RES ovarian = test system: NCI/ADR-RES ovarian
# OVCAR-3 ovarian = test system: OVCAR-3 ovarian
# OVCAR-4 ovarian = test system: OVCAR-4 ovarian
# OVCAR-5 ovarian = test system: OVCAR-5 ovarian
# OVCAR-8 ovarian = test system: OVCAR-8 ovarian
# PC-3 prostate = test system: PC-3 prostate
# RPMI-8226 leukemia = test system: RPMI-8226 leukemia
# RXF 393 renal = test system: RXF 393 renal
# SF-268 CNS = test system: SF-268 CNS
# SF-295 CNS = test system: SF-295 CNS
# SF-539 CNS = test system: SF-539 CNS
# SK-MEL-2 melanoma = test system: SK-MEL-2 melanoma
# SK-MEL-28 melanoma = test system: SK-MEL-28 melanoma
# SK-MEL-5 melanoma = test system: SK-MEL-5 melanoma
# SK-OV-3 ovarian = test system: SK-OV-3 ovarian
# SN12C renal = test system: SN12C renal
# SNB-19 CNS = test system: SNB-19 CNS
# SNB-75 CNS = test system: SNB-75 CNS
# SR leukemia = test system: SR leukemia
# SW-620 colon = test system: SW-620 colon
# T-47D breast = test system: T-47D breast
# TK-10 renal = test system: TK-10 renal
# U251 CNS = test system: U251 CNS
# UACC-257 melanoma = test system: UACC-257 melanoma
# UACC-62 melanoma = test system: UACC-62 melanoma
# UO-31 renal = test system: UO-31 renal
compound,measurement,setting,value
Oc1c(Br)cc(Br)c2ccc(Cn3cc(-c4ccc(C(F)(F)F)cc4)nn3)nc12,GI50,786-0 renal,1.92 µM
same,TGI,786-0 renal,4.54 µM
same,GI50,A498 renal,3.36 µM
same,TGI,A498 renal,13.8 µM
same,GI50,A549 NSCLC,16.6 µM
same,TGI,A549 NSCLC,34.3 µM
same,GI50,ACHN renal,1.38 µM
same,TGI,ACHN renal,2.7 µM
same,GI50,BT-549 breast,2.16 µM
same,TGI,BT-549 breast,5.98 µM
same,GI50,CAKI-1 renal,1.27 µM
same,TGI,CAKI-1 renal,2.69 µM
same,GI50,COLO 205 colon,1.28 µM
same,TGI,COLO 205 colon,2.93 µM
same,GI50,DU-145 prostate,1.67 µM
same,TGI,DU-145 prostate,3.19 µM
same,GI50,EKVX NSCLC,7.43 µM
same,TGI,EKVX NSCLC,20.9 µM
same,GI50,HCC-2998 colon,8.87 µM
same,TGI,HCC-2998 colon,22.6 µM
same,GI50,HCT-116 colon,0.586 µM
same,TGI,HCT-116 colon,2.05 µM
same,GI50,HCT-15 colon,1.56 µM
same,TGI,HCT-15 colon,3.46 µM
same,GI50,HL-60(TB) leukemia,0.674 µM
same,TGI,HL-60(TB) leukemia,3.06 µM
same,GI50,HOP-62 NSCLC,15.6 µM
same,TGI,HOP-62 NSCLC,30.8 µM
same,GI50,HOP-92 NSCLC,1.52 µM
same,TGI,HOP-92 NSCLC,4.4 µM
same,GI50,HS 578T breast,3.03 µM
same,TGI,HS 578T breast,10.3 µM
same,GI50,HT29 colon,1.92 µM
same,TGI,HT29 colon,4.55 µM
same,GI50,IGROV1 ovarian,1.49 µM
same,TGI,IGROV1 ovarian,3.25 µM
same,GI50,K-562 leukemia,0.41 µM
same,TGI,K-562 leukemia,11.8 µM
same,GI50,KM12 colon,8.84 µM
same,TGI,KM12 colon,21.4 µM
same,GI50,LOX IMVI melanoma,0.379 µM
same,TGI,LOX IMVI melanoma,1.52 µM
same,GI50,M14 melanoma,1.81 µM
same,TGI,M14 melanoma,4.44 µM
same,GI50,MALME-3M melanoma,1.65 µM
same,TGI,MALME-3M melanoma,3.67 µM
same,GI50,MCF7 breast,0.532 µM
same,TGI,MCF7 breast,2.36 µM
same,GI50,MDA-MB-231 breast,2.06 µM
same,TGI,MDA-MB-231 breast,5.02 µM
same,GI50,MDA-MB-435,1.85 µM
same,TGI,MDA-MB-435,4.39 µM
same,GI50,MOLT-4 leukemia,1.01 µM
same,TGI,MOLT-4 leukemia,5.76 µM
same,GI50,NCI-H226 lung,4.46 µM
same,TGI,NCI-H226 lung,19.7 µM
same,GI50,NCI-H23 lung,2.31 µM
same,TGI,NCI-H23 lung,6.18 µM
same,GI50,NCI-H460 lung,19 µM
same,TGI,NCI-H460 lung,37.3 µM
same,GI50,NCI-H522 lung,1.08 µM
same,TGI,NCI-H522 lung,3.01 µM
same,GI50,NCI/ADR-RES ovarian,21.1 µM
same,TGI,NCI/ADR-RES ovarian,71.7 µM
same,GI50,OVCAR-3 ovarian,1.42 µM
same,TGI,OVCAR-3 ovarian,2.8 µM
same,GI50,OVCAR-4 ovarian,1.45 µM
same,TGI,OVCAR-4 ovarian,3.11 µM
same,GI50,OVCAR-5 ovarian,3.45 µM
same,TGI,OVCAR-5 ovarian,12.9 µM
same,GI50,OVCAR-8 ovarian,2.62 µM
same,TGI,OVCAR-8 ovarian,7.76 µM
same,GI50,PC-3 prostate,2.9 µM
same,TGI,PC-3 prostate,12.4 µM
same,GI50,RPMI-8226 leukemia,1.59 µM
same,TGI,RPMI-8226 leukemia,5.6 µM
same,GI50,RXF 393 renal,0.662 µM
same,TGI,RXF 393 renal,2.17 µM
same,GI50,SF-268 CNS,4.7 µM
same,TGI,SF-268 CNS,17.9 µM
same,GI50,SF-295 CNS,17.2 µM
same,TGI,SF-295 CNS,31.2 µM
same,GI50,SF-539 CNS,1.59 µM
same,TGI,SF-539 CNS,3.01 µM
same,GI50,SK-MEL-2 melanoma,2.73 µM
same,TGI,SK-MEL-2 melanoma,9.67 µM
same,GI50,SK-MEL-28 melanoma,1.7 µM
same,TGI,SK-MEL-28 melanoma,3.44 µM
same,GI50,SK-MEL-5 melanoma,3.16 µM
same,TGI,SK-MEL-5 melanoma,11.7 µM
same,GI50,SK-OV-3 ovarian,17.8 µM
same,TGI,SK-OV-3 ovarian,32.1 µM
same,GI50,SN12C renal,3.53 µM
same,TGI,SN12C renal,14.4 µM
same,GI50,SNB-19 CNS,11.1 µM
same,TGI,SNB-19 CNS,24.5 µM
same,GI50,SNB-75 CNS,1.49 µM
same,TGI,SNB-75 CNS,8.04 µM
same,GI50,SR leukemia,0.794 µM
same,TGI,SR leukemia,5.86 µM
same,GI50,SW-620 colon,0.548 µM
same,TGI,SW-620 colon,2.13 µM
same,GI50,T-47D breast,1.72 µM
same,TGI,T-47D breast,5.84 µM
same,GI50,TK-10 renal,1.82 µM
same,TGI,TK-10 renal,3.79 µM
same,GI50,U251 CNS,4.42 µM
same,TGI,U251 CNS,16.5 µM
same,GI50,UACC-257 melanoma,1.31 µM
same,TGI,UACC-257 melanoma,3.19 µM
same,GI50,UACC-62 melanoma,3.4 µM
same,TGI,UACC-62 melanoma,14.4 µM
same,GI50,UO-31 renal,1.68 µM
same,TGI,UO-31 renal,5.03 µM
